# Data published in patent US20240109936A1, “NOVEL M[…] PEPTIDES” (University of Florida Research Foundation, Incorporated, priority 2020, published 2024).
# Where a SMILES comes first, the peptide text is derived from it.
# Assays:
# κ opioid receptor = target: T1, κ opioid receptor (Mus musculus, UniProt P33534); settings: non-peptide KOR antagonists; cited from earlier work
# T1 construct: host or cells: living animal (CNS), endogenous receptor
# mice [1] = test: Reinstatement of extinguished morphine conditioned place preference (forced swim stress- or morphine-induced); format: in vivo, mouse; settings: 30 mg/kg, p.o., FIG. 34
# mice [2] = test: Forced swim stress-induced increase in morphine consumption, two-bottle choice assay; format: in vivo, mouse; settings: orally administered, FIG. 13
# mice [3] = settings: 3930 alone; place conditioning daily for 2 days; FIG. 33
# Procedure: For conditioned place preference assay/reinstatement testing are conducted essentially as described for example in Brice-Tutt A C, Wilson L L, Eans S O, Stacy H M, Simons C A, Simpson G G, Coleman J S, Ferracane M J, Aldrich J V, McLaughlin J P: Multifunctional opioid receptor agonism and antagonism by a novel macrocyclic tetrapeptide prevents reinstatement of morphine-seeking behavior. British Journal of Pharmacology, 177(18):4209-4222, 2020. doi: 10.1111/bph.15165.
# mice [4] = test: Naloxone precipitated withdrawal (jumping behavior) in morphine-treated mice; format: in vivo, mouse; settings: five days of morphine injections; 30 mg/kg, p.o. 1 hour prior to naloxone (10 mg/kg, s.c.); FIG. 35
# Procedure: For naloxone precipitated withdrawal or 2-bottle choice (TBC) assay testing are conducted essentially as described for example in Wilson L L, Harris H M, Brice-Tutt A C, Cirino T J, Eans S O, Stacy H M, Simons C A, Sharma A, Leon J F, Boyer E W, Avery B A, McLaughlin J P, McCurdy C M: Lyophilized Kratom tea as a therapeutic option for opioid dependence. Drug and Alcohol Dependence, 216:108310-108318, 2020. https://doi.org/10.1016/j.drugalcdep.2020.108310; and as follows;
# T1 sequence (P33534 whole entry): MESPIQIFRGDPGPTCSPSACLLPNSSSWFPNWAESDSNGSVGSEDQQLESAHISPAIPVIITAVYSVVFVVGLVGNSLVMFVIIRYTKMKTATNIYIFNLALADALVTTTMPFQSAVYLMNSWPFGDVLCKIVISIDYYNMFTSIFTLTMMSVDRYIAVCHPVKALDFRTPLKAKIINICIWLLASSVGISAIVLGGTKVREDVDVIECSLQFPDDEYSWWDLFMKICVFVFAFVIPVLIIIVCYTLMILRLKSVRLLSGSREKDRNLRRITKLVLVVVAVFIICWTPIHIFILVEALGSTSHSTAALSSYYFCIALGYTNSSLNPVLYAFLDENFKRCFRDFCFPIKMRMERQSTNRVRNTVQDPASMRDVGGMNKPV
smiles,measurement,setting,value
CC(C)[C@@H](CN1CC[C@@](C)(c2cccc(O)c2)[C@@H](C)C1)NC(=O)[C@H]1Cc2ccc(O)cc2CN1 [JDTic],duration of antagonism,κ opioid receptor,unusually long duration of antagonism
N=C(N)Nc1ccc2[nH]c3c(c2c1)C[C@@]1(O)[C@H]2Cc4ccc(O)c5c4[C@@]1(CCN2CC1CC1)[C@H]3O5 [5-guanidinylnaltrindole],duration of antagonism,κ opioid receptor,unusually long duration of antagonism
"O=C1N[C@H](Cc2ccccc2C(F)(F)F)C(=O)N[C@@H](Cc2ccccc2)C(=O)N2CCC[C@@H]2C(=O)N[C@H]1Cc1ccccc1 [compound 3930, cyclo[Phe-D-Pro-Phe-D-Phe(2-CF3)]] (HELM PEPTIDE1{F.[dP].F.[O=C([C@@H](Cc1ccccc1C(F)(F)F)N[*:1])[*:2]]}$PEPTIDE1,PEPTIDE1,1:R1-4:R2$$$V2.0)","stress- (forced swim stress, FSS) induced reinstatement of extinguished morphine-CPP",mice [1]; administered 5 min or 2.5 hr prior to FSS exposure,prevented stress-induced reinstatement of place preference
same,drug-seeking behavior after an additional round of morphine-place conditioning,mice [1]; administered 5 min prior to additional round of morphine-place conditioning,no significant effect on drug-seeking behavior
same,stress-induced increase in consumption of a morphine solution,mice [2],can prevent a stress-induced increase in consumption of a morphine solution
same,conditioned place preference or aversion,mice [3],did not produce conditioned place preference or aversion
same,frequency of jumping behavior following administration of naloxone,mice [4],significantly reduced instances of jumping behavior
Oc1ccc2c3c1O[C@H]1c4[nH]c5c(c4C[C@@]4(O)[C@@H](C2)N(CC2CC2)CC[C@]314)C[C@@]1(O)[C@H]2Cc3ccc(O)c4c3[C@@]1(CCN2CC1CC1)[C@H]5O4 [nor-binaltorphimine],duration of antagonism,κ opioid receptor,unusually long duration of antagonism
